Results on 3 molecules are retold here after patent US5480645A, “Hydroxyamines N-acyl derivatives having scavenger activity and useful in acute and chronic pathologies associated with peroxidation and inflammation phenomena” (LifeGroup S.p.A., priority 1992, dated 1996).

One data set deals with C6 glioma cells. As to the kind of experiment: Protection against 5 mM glutamate cytotoxicity in glioma C6 cultures. As to conditions: Rattus norvegicus, C6 glioma, 24 h, read-out: % Cell survival.
Data set [1] relates to rat liver microsomes (membrane phospholipid peroxidation). As to the kind of experiment: Antiperoxidative activity on rat liver microsomes, cumene hydroperoxide induced peroxidation (MDA formation). Format: biochemical. The following applies: for peroxidation inhibition / MDA: 0.5 mM cumene hydroperoxyde, Table 3; for MDA: control 12.8. The method, then: b) 20 mM Hepes-Tris buffer pH=7.4, 0.5 mM cumene hydroperoxide in the presence or in the absence of the compounds to be tested. […] Subsequently the incubation is carried out for 15' at 90° C. in order to allow the development of the coloured adduct.
(§1) A common oxidation product, malonyldialdehyde (MDA), to the two oxidant systems described in (a) and in (b), is measured.
The tested compounds are solubilized in the culture medium up to the desired concentrations (see tables 1-3).
As peroxidant agent 0.5 mM cumene hydroperoxyde is used. As oxidation index the formation of malonyldialdehyde (MDA) is measured (nmoles/mg protein).

Data set [2] concerns granular cerebellar cells. As to the kind of experiment: Protection against 2 mM glutamate cytotoxicity in immature granular cerebellar cell cultures. The following applies: Mus musculus, 24 h, read-out: % Cellular survival.
Experimental: The tested compounds are solubilized in DMSO at a concentration of from 1 to 100 μM.
Another data set can be described thus: Solubility. The following applies: for solubility: organic solvent or mixture, read-out: solubility in org. solv. Format: physicochemical.
In data set [3] the test system is rat cerebellar granular cells. Briefly: Protection against glutamate neurotoxicity in rat cerebellar granular cell cultures. Format: cell-based. As for the experimental part:
Primary cerebellar granular cell cultures are prepared from 8 days old Sprague-Dawly rats. Neurons are grown on 35 mm plates for 7-8 days. […] Glial cells proliferation is prevented by cytosine arabinose-furanoside.
Cells are washed in Locke solution free from Mg^2+ then replated in the conditionned culture medium.
The solution is diluted serially up to 10, 20 and 50 μM. The compounds at the desired concentrations are added to the cells at 37 ° C.; after 15' 50 μM glutamate free from Mg^2+ is added For 15 minutes at 22 ° C.
The cells are then washed 3 times with Locke solution, then added to the original culture medium and maintained at 37 ° C. in 5 % CO2 for 24 hours.
The cellular survival is measured by using a fluorescence microscope.

Another data set relates to mast cells. Briefly: In vivo antidegranulating activity in rat mast cells (substance P induced). Also noted: species or system Sprague Dawley rats. The following applies: for inhibition % (mast cells degranulation induced by substance P): s.c. 20 mg/kg, substance P 10^-6 M in auricular pinna, substance P effect taken as 100% degranulation. As for the experimental part: 1. In vivo antidegranulating activity in rat mast cells.
The pharmacological treatment is preceded (20 min. before) by the degranulating stimulus induced by P substance (10^-6 M) injected in the auricular pinna. After 20 minutes from the degranulating stimulus, the animals are sacrificed. Their tissues are then taken (auricular pavilion) for the morphological aspect analysis of the mast cells residing in the connective tissues after fixation and coloration with toluidine blue.
The inhibition level of the mast cells degranulation in the animal tissue treated with the tested compounds in comparison with the animals treated only with the degranulating agent is considered as the parameter of the biological activity.
*the inhibition percentage is calculated considering that the effect of
the substance P is maximum (100% of mast cells degranulation).

The test system of data set [4] is rat liver microsomes (membrane phospholipid peroxidation). Briefly: Antiperoxidative activity on rat liver microsomes, NADPH/Fe+2/ADP induced peroxidation (MDA formation). Format: biochemical. The following applies: for MDA: control 42.5. The method, then: Before the final resuspension mitochondria ape washed with 0.125M KCl containing 15 mM Hepes/10 mM tris at pH=7.4. Rat liver microsomes are prepared as described by Ernster and Nordenbrand (Ernster, Nordenbrand K. Methods Enzymol. 1967, 10:574-80). […]
b) 20 mM Hepes-Tris buffer pH=7.4, 0.5 mM cumene hydroperoxide in the presence or in the absence of the compounds to be tested. The trials after incubation are interrupted with 1 ml 35% TCA which 30 mg BHT and 1 ml 1% TBA (thiobarbituric acid) have been added to. Subsequently the incubation is carried out for 15' at 90° C. in order to allow the development of the coloured adduct.
as §1
The formed MDA is evaluated by spectrophotometry at 532 nm and calculated by using a molar extinction coefficient of 156.000 (Buege J. A. and Aust S. D., Methods Enzymol., 52, 302-310, 1978).
The tested compounds are solubilized in the culture medium up to the desired concentrations (see tables 1-3). […]
The antiperoxidase activity is measured as % of inhibition of malonyldialdehyde formation.

[5] abbreviates: in vitro, 10 to 50 μM dose/effect relationship for the test compound.
The mark [6] stands for this setting: 10 μM, NADPH/Fe+2/ATP, Table 1-A.
The mark [7] stands for this setting: 20 μM, NADPH/Fe+2/ATP, Table 1-A.

Read-outs that look alike come from different tables or passages of the source. Where no end group is shown, it is not given here.

A word on the solubility: it is the dissolved amount per volume that the medium holds. Regarding `Cc1c(C)c2c(c(C)c1O)CC(CC(=O)NCCO)O2` (centres unmarked) [Example 1, 2-(2,3-dihydro-5-hydroxy-4,6,7-trimethylbenzofuran)-acetic acid 2 hydroxyethylamide], the results for the viability at 1 µM (in the data set with C6 glioma cells; in data set [2]) were 13% and 31%, respectively. The viability at 3 µM came out at 88% in the data set on C6 glioma cells and 40% in data set [2]. For the same molecule, the viability at 10 µM in the data set with C6 glioma cells amounted to 89%; in data set [2], 94%; in data set [3] (Rattus norvegicus, 24 h, 10 μM, against 50 μM glutamate, Table 4, control 100, read-out: cell survival), 33%. For the same molecule, the peroxidation inhibition in data set [1] (20 μM) stood at 47%; in data set [1] (50 μM), 80%; in data set [4] (setting [6]), 21%; in data set [4] (setting [7]), 49%. In addition, the MDA is listed as 6.84 nmoles/mg prot in data set [1] (20 μM), 2.5 nmoles/mg prot in data set [1] (50 μM), 33.5 nmoles/mg prot in data set [4] (setting [6]) and 21.3 nmoles/mg prot in data set [4] (setting [7]). Further, the “inhibition of the peroxidation induced by cumene peroxide (in words)” value in data set [1] (setting [5]) is “able to inhibit the peroxidation induced by NADPH/Fe^+2 /ADP (a) and by cumene peroxide (b)”. The solubility in the data set “Solubility” (in ethanol, DMSO, chloroform) was greater than 10000 µg/mL. The water solubility entry in “Solubility” is given as “slightly soluble”. Moreover, the viability at 20 µM in data set [3] (Rattus norvegicus, 24 h, 20 μM, against 50 μM glutamate, Table 4, control 100, read-out: cell survival) stood at 50%. Besides, in data set [3] (Rattus norvegicus, 24 h, 50 μM, against 50 μM glutamate, Table 4, control 100, read-out: cell survival), the viability at 50 µM was 85%. Further, the “protection against glutamate exogenous neurotoxicity (in words)” value in data set [3] (dose-effect relationship) is given as “able to protect against the glutamate exogenous neurotoxicity”. For the same molecule, the “inhibition % (mast cells degranulation induced by substance P)” value in the data set on mast cells was 19%. For the same molecule, the “effect compared with the corresponding acid (in words)” value in data set [4] (Tab. 1-A and 3 (NADPH/Fe+2/ADP and cumene peroxide)) is listed as “consistently higher than that of the comparison product namely the corresponding acid”. Further, the “inhibition of the peroxidation induced by NADPH/Fe+2/ADP (in words)” value in data set [4] (setting [5]) was “able to inhibit the peroxidation induced by NADPH/Fe^+2 /ADP (a)”.

For the molecule `Cc1c(C)c2c(c(C)c1OC(=O)CCC(=O)NCCO)CCC(C)(CCCC(C)CCCC(C)CCCC(C)C)O2` [Example 2, D-α-tocopherol acid succinate 2-hydroxyethylamide], in the data set with C6 glioma cells, the viability at 10 µM worked out at 10%. The viability at 30 µM with C6 glioma cells amounted to 80%. Also, in the data set “Solubility” (in ethanol and chloroform), the solubility is greater than 10000 µg/mL. For the same molecule, the water solubility result in the data set “Solubility” is listed as “slightly soluble”. Besides, in the data set on mast cells, the “inhibition % (mast cells degranulation induced by substance P)” value was found to be 38.5%. The peroxidation inhibition is reported as 1.40% in data set [4] (40 μM, preincubation time 0 minutes, ADP/NADPH/Fe, Table 2); 17.30% in data set [4] (40 μM, preincubation time 15 minutes, ADP/NADPH/Fe, Table 2); 29.50% in data set [4] (40 μM, preincubation time 30 minutes, ADP/NADPH/Fe, Table 2); 37.90% in data set [4] (40 μM, preincubation time 45 minutes, ADP/NADPH/Fe, Table 2); 40.90% in data set [4] (40 μM, preincubation time 60 minutes, ADP/NADPH/Fe, Table 2).

Take “substance P: degranulating stimulus injected in the auricular pinna (RPKPQQFFGLM; ends and bridges not checked; UniProt P20366 58-68, looked up) [reference compound]”: the mast cells degranulation with mast cells (induced by substance P, of the numbered mast cells) is on record as 85-95%.
